The results in this text go back to patent US7732468B2, “3-aryl-6-aryl-[ 1,2,4]triazolo[3,4-b][1,3,4]thiadiazoles and related compounds as activators of caspases and inducers of apoptosis and the use thereof” (Cytovia, Inc., priority 2006, dated 2010).

Common to all, as to assay type: cell-based
Test [1] has as its system human hepatocellular carcinoma cell line SNU398. Nature of the test: Caspase cascade activation in SNU398 cells. Conditions: SNU-398, 48 h incubation, read-out: caspase potency EC50 SNU398. Here is the method: (§1) Human breast cancer cell lines T-47D, human hepatocellular carcinoma cell line SNU398, human colon carcinoma cell line HCT116, human cancer cell line H11299, human Burkitt's lymphoma cell line Namalwa, human lymphoma cell line Raji, and human B cell lymphoblastoid cell line Ramos were grown according to media component mixtures designated by American Type Culture Collection+10% FCS (Invitrogen Corporation), in a 5% CO2-95% humidity incubator at 37° C. T-47D and H1299 cells were maintained at a cell density between 50 and 80% confluency at a cell density of 0.1 to 0.6×10^6 cells/mL. Cells were harvested at 600×g and resuspended at 0.65×10^6 cells/mL into appropriate media+10% FCS. An aliquot of 22.5 μL of cells was added to a well of a 384-well microtiter plate containing 2.5 μL of a 10% DMSO in RPMI-1640 media solution containing 0.16 to 100 μM of 6-(3,4-dimethoxyphenyl)-3-(2-methoxyphenyl)-[1,2,4]triazolo[3,4-b][1,3,4]thiadiazole or other test compound (0.016 to 10 μM final). An aliquot of 22.5 μL of cells was added to a well of a 384-well microtiter plate containing 2.5 μL of a 10% DMSO in RPMI-1640 media solution without test compound as the control sample. The samples were mixed by agitation and then incubated at 37° C. for 48 h in a 5% CO2-95% humidity incubator. After incubation, the samples were removed from the incubator and 25 μL of a solution containing 14 μM of N-(Ac-DEVD)-N′-ethoxycarbonyl-R110 (SEQ ID No.:1) fluorogenic substrate (Cytovia, Inc.; WO99/18856), 20% sucrose (Sigma), 20 mM DTT (Sigma), 200 mM NaCl (Sigma), 40 mM Na PIPES buffer pH 7.2 (Sigma), and 500 μg/mL lysolecithin (Calbiochem) was added. The samples were mixed by agitation and incubated at room temperature. Using a fluorescent plate reader (Model SPECTRAfluor Plus, Tecan), an initial reading (T=0) was made approximately 1-2 min after addition of the substrate solution, employing excitation at 485 nm and emission at 530 nm, to determine the background fluorescence of the control sample. After the 3 h incubation, the samples were read for fluorescence as above (T=3 h).
(§2) The Relative Fluorescence Unit values (RFU) were used to calculate the sample readings as follows: RFU(T=3h)−Control RFU(T=0)=Net RFU(T=3h)
(§3) The activity of caspase cascade activation was determined by the ratio of the net RFU value for 6-(3,4-dimethoxyphenyl)-3-(2-methoxyphenyl)-[1,2,4]triazolo[3,4-b][1,3,4]thiadiazole (Example I) or other test compound to that of control samples. The EC50 (nM) was determined by a sigmoidal dose-response calculation (Prism 3.0, GraphPad Software Inc.).

Test [2] has as its system human Burkitt's lymphoma cell line Namalwa. Nature of the test: Caspase cascade activation in Namalwa cells. Conditions: Burkitts lymphoma cell, 48 h incubation, read-out: caspase potency EC50 Namalwa. Here is the method:
as §1, §2, §3

In test [3] the test system is human lymphoma cell line Raji. Nature of the test: Caspase cascade activation in Raji cells. The settings on record: RAJ1 cells, 48 h incubation, read-out: caspase potency EC50 RAJ1. The protocol:
as §1, §2, §3

The subject of test [4] is Human breast cancer cell lines T-47D. Nature of the test: Caspase cascade activation (Ac-DEVD-R110 fluorogenic substrate) in T-47D cells. The settings on record: T47D cells, 48 h incubation, read-out: caspase potency EC50 T47D. Here is the method:
as §1, §2, §3

The subject of test [5] is human colon carcinoma cell line HCT116. Nature of the test: Caspase cascade activation in HCT116 cells. Conditions: HCT-116, 48 h incubation, read-out: caspase potency EC50 HCT116. The protocol: as §1, §2, §3
For test [6], the system named is human B cell lymphoblastoid cell line Ramos. The test is described as follows: Caspase cascade activation in Ramos cells. Conditions: 48 h incubation, read-out: caspase potency EC50 RAMOS. The protocol: as §1, §2, §3

In general, EC50 refers to the concentration needed to bring the measured effect to its halfway point. Take `CCc1nn(C)c(-c2nnc3sc(-c4ccc(OC)cc4)nn23)c1Cl` [B, 3-(4-Chloro-3-ethyl-1-methyl-1H-pyrazol-5-yl)-6-(4-methoxyphenyl)-[1,2,4]triazolo[3,4-b][1,3,4]thiadiazole]: the 50% effective concentration (EC50) in test [1] was > 10000 nM; in test [2], 5630 nM; in test [3], 5400 nM; in test [4], > 10000 nM; in test [5] it was > 10000 nM; in test [6] it was 5300 nM.
Regarding `CCN(CC)c1ccc(-c2nn3c(-c4cccnc4)nnc3s2)cc1` [D, 6-(4-Diethylaminophenyl)-3-(pyridin-3-yl)-[1,2,4]triazolo[3,4-b][1,3,4]thiadiazole], the EC50 in test [2] is 2480 nM; in test [3] it was 5070 nM; in test [6], 1100 nM.
As to `COc1cc(-c2nnc3sc(-c4ccc(C)c([N+](=O)[O-])c4)nn23)cc(OC)c1OC` [Entry 1, 6-(4-Methyl-3-nitrophenyl)-3-(3,4,5-trimethoxyphenyl)-[1,2,4]triazolo[3,4-b][1,3,4]thiadiazole], the 50% effective concentration (EC50) in test [1], in test [2], in test [4] and in test [5] was > 10000 nM throughout.
In the case of `COc1cc(-c2nnc3sc(-c4ccc(C)c(N)c4)nn23)cc(OC)c1OC` [Entry 2, 6-(3-Amino-4-methylphenyl)-3-(3,4,5-trimethoxyphenyl)-[1,2,4]triazolo[3,4-b][1,3,4]thiadiazole], the concentration for a half-maximal effect (EC50) in test [1] turned out to be 645 nM; in test [2], 626 nM; in test [4], 1620 nM; in test [5], 1320 nM.
For `COc1cc(-c2nnc3sc(-c4ccc5nc[nH]c5c4)nn23)cc(OC)c1OC` [Entry 3, 6-(1H-Benzo[d]imidazol-6-yl)-3-(3,4,5-trimethoxyphenyl)-[1,2,4]triazolo[3,4-b][1,3,4]thiadiazole], the concentration for a half-maximal effect (EC50) in test [1], in test [2], in test [4] and in test [5] was > 10000 nM throughout.
For `COc1ccccc1-c1nnc2sc(-c3ccc(C)c([N+](=O)[O-])c3)nn12` [Entry 4, 3-(2-Methoxyphenyl)-6-(4-methyl-3-nitrophenyl)-[1,2,4]triazolo[3,4-b][1,3,4]thiadiazole], the EC50 in test [1], in test [2], in test [4] and in test [5] was > 10000 nM in each case.
In the case of `COc1ccccc1-c1nnc2sc(-c3ccc(OC)c([N+](=O)[O-])c3)nn12` [Entry 6, 6-(4-Methoxy-3-nitrophenyl)-3-(2-methoxyphenyl)-[1,2,4]triazolo[3,4-b][1,3,4]thiadiazole], the concentration giving a half-maximal response (EC50) in test [1], in test [2], in test [4] and in test [5] was > 10000 nM in each case.
As for `COc1cc(-c2nnc3sc(-c4ccc(N5CCOCC5)cc4)nn23)cc(OC)c1OC` [Entry 8, 6-(4-Morpholinophenyl)-3-(3,4,5-trimethoxyphenyl)-[1,2,4]triazolo[3,4-b][1,3,4]thiadiazole], the half-maximal effective concentration (EC50) in test [1], in test [2], in test [4] and in test [5] was > 10000 nM in each case.
Take `COc1ccccc1-c1nnc2sc(-c3ccc(N4CCOCC4)cc3)nn12` [Entry 9, 3-(2-Methoxyphenyl)-6-(4-morpholinophenyl)-[1,2,4]triazolo[3,4-b][1,3,4]thiadiazole]: the 50% effective concentration (EC50) in test [1] came to 2320 nM; in test [2], 2380 nM; in test [4], 1260 nM; in test [5], 2640 nM.
Consider `COc1ccccc1-c1nnc2sc(-c3ccc([N+](=O)[O-])c(OC)c3)nn12` [Entry 10, 6-(3-Methoxy-4-nitrophenyl)-3-(2-methoxyphenyl)-[1,2,4]triazolo[3,4-b][1,3,4]thiadiazole], for which the EC50 in test [1], in test [2], in test [4] and in test [5] was > 10000 nM each time.
Regarding `COc1ccccc1-c1nnc2sc(-c3cccnc3)nn12` [Entry 11, 3-(2-Methoxyphenyl)-6-(pyridin-3-yl)-[1,2,4]triazolo[3,4-b][1,3,4]thiadiazole], the EC50 in test [1], in test [2], in test [4] and in test [5] was > 10000 nM throughout.
For the compound `COc1ccccc1-c1nnc2sc(-c3ccc4[nH]ncc4c3)nn12` [Entry 12, 6-(1H-indazol-5-yl)-3-(2-methoxyphenyl)-[1,2,4]triazolo[3,4-b][1,3,4]thiadiazole], the 50% effective concentration (EC50) was 571 nM in test [1], 649 nM in test [2], 1180 nM in test [4] and 1170 nM in test [5].
For `COc1ccccc1-c1nnc2sc(-c3ccc4cc[nH]c4c3)nn12` [Entry 13, 6-(1H-indol-6-yl)-3-(2-methoxyphenyl)-[1,2,4]triazolo[3,4-b][1,3,4]thiadiazole], the EC50 came out at 146 nM in test [1], 155 nM in test [2], 967 nM in test [4] and 663 nM in test [5].
Consider `COc1ccc(-c2nnc3sc(-c4ccc(N(C)C)cc4)nn23)cc1OC` [Entry C1, 3-(3,4-Dimethoxyphenyl)-6-(4-dimethylaminophenyl)-[1,2,4]triazolo[3,4-b][1,3,4]thiadiazole], for which the concentration giving a half-maximal response (EC50) was 5300 nM in test [2], > 10000 nM in test [3] and 5180 nM in test [6].
The corresponding values for `CN(C)c1ccc(-c2nn3c(-c4ccncc4)nnc3s2)cc1` [Entry H1, 6-(4-Dimethylaminophenyl)-3-(pyridine-4-yl)-[1,2,4]triazolo[3,4-b][1,3,4]thiadiazole] are 2660 nM, 4940 nM and 3920 nM.
For the compound `CN(C)c1ccc(-c2nnc3sc(-c4cccc(N(C)C)c4)nn23)cc1` [Entry J1, 3-(4-Dimethylaminophenyl)-6-(3-dimethylaminophenyl)-[1,2,4]triazolo[3,4-b][1,3,4]thiadiazole], the results for the concentration giving a half-maximal response (EC50) in test [2], in test [3] and in test [6] were 5530 nM, > 10000 nM and 5330 nM, respectively.
For `COc1ccc(-c2nn3c(-c4n[nH]c5c4CCC5)nnc3s2)cc1OC` [Entry L1, 6-(3,4-Dimethoxyphenyl)-3-(1,4,5,6-tetrahydrocyclopenta[c]pyrazol-3-yl)-[1,2,4]triazolo[3,4-b][1,3,4]thiadiazole], the EC50 in test [2] amounted to 1310 nM; in test [3] it was 2690 nM; in test [4], 2430 nM; in test [5], 2760 nM; in test [6], 1740 nM.
On to `CCN(CC)c1ccc(-c2nn3c(-c4cccc(C)c4)nnc3s2)cc1` [G, 6-(4-Diethylaminophenyl)-3-m-tolyl-[1,2,4]triazolo[3,4-b][1,3,4]thiadiazole], for which the results for the EC50 in test [2], in test [3] and in test [6] were 2350 nM, 2930 nM and 2240 nM, respectively.
As to `CCN(CC)c1ccc(-c2nn3c(-c4ccncc4)nnc3s2)cc1` [J, 6-(4-Diethylaminophenyl)-3-(pyridin-4-yl)-[1,2,4]triazolo[3,4-b][1,3,4]thiadiazole], the EC50 is 598 nM in test [2], 1060 nM in test [3] and 524 nM in test [6].
Take `COc1cc(-c2nnc3sc(-c4ccccc4)nn23)cc(OC)c1OC` [W, 6-Phenyl-3-(3,4,5-trimethoxyphenyl)-[1,2,4]triazolo[3,4-b][1,3,4]thiadiazole]: the EC50 in test [1] is > 10000 nM; in test [2], > 10000 nM; in test [3], > 10000 nM; in test [4], 5040 nM; in test [5], > 10000 nM; in test [6] it was > 10000 nM.
With `COc1ccc(-c2nn3c(-c4ccccc4Cl)nnc3s2)cc1` [Z, 3-(2-Chlorophenyl)-6-(4-methoxyphenyl)-[1,2,4]triazolo[3,4-b][1,3,4]thiadiazole], the concentration for a half-maximal effect (EC50) was found to be 963 nM in test [2], 1560 nM in test [3] and 1020 nM in test [6].
